Experimental data from patent US5731293A, “Esculetin derivatives, method for manufacture thereof, and pharmaceutical composition” (Kureha Chemical Industry Co., Ltd., priority 1994, dated 1998).

Key:
[1] = tested on: interstitial collagenase (MMP-1); experiment: Inhibition of production of interstitial collagenase (MMP-1) in rabbit cartilage organ culture system, IL-1α stimulated; assay type: cell-based, rabbit (New Zealand White); conditions: IL-1α 100 units/ml, 48 hours; rabbit articular cartilage; values only in FIG. 1
Protocol: After the articular cartilages were collected from the shoulder and knee of rabbits (New Zealand White Rabbits, male, 6 weeks old) and divided into small pieces, cultivation experiment was started using Dulbecco's MEM medium containing 0.2% lactoalbumin. The compounds to be tested were dissolved in dimethylsulfoxide (DMSO) and then added to the medium. The concentration of DMSO was 0.25% by volume to the medium. After 2 hours from addition of the compounds to be tested, 100 units/ml of interleukin-1α (hereinafter referred to as the IL-1α) was added as a stimulant, and the cultivation was performed for 48 hours. Thereafter, the activity of MMP-1 in the supernatant of the culture was measured. Collageno kit (CLN-100) (Cosmo Bio Co., Ltd.) was used for the measurement of MMP-1.
The results are shown as the value of the mean value±standard error (n=4 per a group). As the esculetin derivative of the present invention, 6-(β-2-acetamido-2-deoxy-D-glucopyranosyloxy)-7-(N,N-dimethylcarbamoyloxy)coumarin [Ib-2] was used.
The abscissa is the percentage of the amounts of MMP-1 produced by adding both IL-1α and the compound to be tested as compared to the amounts of MMP-1 produced by the addition of IL-1α alone. When neither IL-1α nor the compound to be tested were added as a control test, MMP-1 was hardly produced.

[2] = Pharmacokinetic analysis in mouse femoral head cartilage (FHC) model; assay type: in vivo, BALB/C female mice implanted with FHC of S. D. male rats; conditions: oral, 534 mg/kg [Ib-2] vs esculetin 187 mg/kg; values only in FIG. 2
Protocol: The model mice were prepared in accordance with the method described in D. A. Willoughby et al., Agents Actions, vol. 38, pp. 126 to 134, 1993.
The left and right femoral head cartilages (FHC) were sterilely excised from S. D. male rats in a clean bench. The excised FHC's were washed with a Ham F-12 culture medium containing antibiotics and the wet weight was measured. Then, the FHC's were wrapped in two cotton sheets (about 1 cm×1 cm) and cooled with ice in the culture medium for storage until implantation. The FHC's were implanted sterilely under the dorsal skin of BALB/C female mice whose dorsal regions were shaved. The incisions were stitched, and then completely sealed with surgical adhesive (Toa Gosei, Japan).
The above mouse FHC model were used to pharmacokinetically compare esculetin and the esculetin derivative [Ib-2] of the present invention. Esculetin (187 mg/kg) and an equimolar amount, i.e., 534 mg/kg, of the esculetin derivative [Ib-2] of the present invention were administered orally three days after the implantation of the FHC. The FHC's were periodically removed and digested with papain. Then, an amount of the compounds taken up in the FHC was analyzed by high performance liquid chromatography. In the above experiments, three mice were used for each group.

[3] = tested on: Crj: CD-1 (ICR) male mice; experiment: Acute toxicity, oral, male mice, 7-day observation; assay type: in vivo, mouse; conditions: 1000 and 2000 mg/kg, 7 days
Protocol: (§1) The toxicity of the esculetin derivatives of the present invention was examined. Typical examples of the present derivatives were administered orally at a dose of 2000 mg/kg (body weight) to male mice and male rats which were then observed for seven days. No deaths and no remarkable toxicity were observed. The esculetin derivatives of the present invention are extremely safe compounds (see Example 13).
(§2) The acute toxicity of the esculetin derivatives of the present invention was examined using Crj: CD-1 (ICR) male mice (6 weeks old) and Wistar male rats (6 weeks old). After 6-(β-2-acetamido-2-deoxy-D-glucopyranosyloxy)-7-(N,N-dimethylcarbamoyloxy)coumarin [Ib-2] […] In the experiments as above, two animals were used for each group.

[4] = tested on: Wistar male rats; experiment: Acute toxicity, oral, male rats, 7-day observation; assay type: in vivo, rat; conditions: 1000 and 2000 mg/kg, 7 days
Protocol: as §1, §2

CC(=O)N[C@H]1[C@H](Oc2cc3ccc(=O)oc3cc2OC(=O)N(C)C)O[C@H](CO)[C@@H](O)[C@@H]1O [Ib-2, 6-(β-2-acetamido-2-deoxy-D-glucopyranosyloxy)-7-(N,N-dimethylcarbamoyloxy)coumarin]
amounts of MMP-1 released under IL-1α stimulated condition [1]: reduced the amounts of MMP-1 under IL-1α stimulated condition | amount of compound taken up and retained in the FHC [2]: taken up and retained in the FHC for a long time in a higher concentration as compared to esculetin | deaths [3]: No deaths were observed | general state and body weight in comparison with the control group [3]: no change was observed | deaths [4]: No deaths were observed | general state and body weight in comparison with the control group [4]: no change was observed
